Results: ChEMBL document CHEMBL1201862, “PubChem BioAssay data set” (2004)
Calls of active or inactive are those of the source.

Columns and labels:
Type in all cases: functional
Vero = experiment: viability of Vero cells under compound – cytotoxicity control for flavivirus capping enzyme inhibitors (AID 588742); details: Chlorocebus sabaeus
[1] = target: DNA dC->dU-editing enzyme APOBEC-3G (Homo sapiens, UniProt Q9HC16); experiment: Dose Response confirmation of small molecule APOBEC3G DNA Deaminase Inhibitors via a fluorescence-based single-stranded DNA deaminase assay. [Related pubchem assays (depositor defined):AID493012, AID493028]
DNA dC->dU-editing enzyme APOBEC-3G, sequence (Q9HC16 whole entry): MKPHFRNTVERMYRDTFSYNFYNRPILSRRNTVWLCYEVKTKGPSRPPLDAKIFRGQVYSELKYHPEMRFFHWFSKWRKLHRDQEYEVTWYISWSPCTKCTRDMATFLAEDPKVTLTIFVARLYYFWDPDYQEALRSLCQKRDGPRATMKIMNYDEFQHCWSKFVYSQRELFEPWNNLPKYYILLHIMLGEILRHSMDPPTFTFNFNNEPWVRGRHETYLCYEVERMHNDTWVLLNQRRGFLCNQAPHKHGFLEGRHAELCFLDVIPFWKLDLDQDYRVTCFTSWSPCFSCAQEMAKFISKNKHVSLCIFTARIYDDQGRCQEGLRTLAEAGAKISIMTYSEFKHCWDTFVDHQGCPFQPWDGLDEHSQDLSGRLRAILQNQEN

[2] = target: T1, Rac GTPase-activating protein 1 (Homo sapiens, UniProt Q9H0H5); experiment: blockers of MgcRacGAP-driven Rac1 GTP hydrolysis – biochemical, ADP Hunter fluorescence, primary and confirmatory, confirmation (AID 624330)
T1 sequence (Q9H0H5 whole entry): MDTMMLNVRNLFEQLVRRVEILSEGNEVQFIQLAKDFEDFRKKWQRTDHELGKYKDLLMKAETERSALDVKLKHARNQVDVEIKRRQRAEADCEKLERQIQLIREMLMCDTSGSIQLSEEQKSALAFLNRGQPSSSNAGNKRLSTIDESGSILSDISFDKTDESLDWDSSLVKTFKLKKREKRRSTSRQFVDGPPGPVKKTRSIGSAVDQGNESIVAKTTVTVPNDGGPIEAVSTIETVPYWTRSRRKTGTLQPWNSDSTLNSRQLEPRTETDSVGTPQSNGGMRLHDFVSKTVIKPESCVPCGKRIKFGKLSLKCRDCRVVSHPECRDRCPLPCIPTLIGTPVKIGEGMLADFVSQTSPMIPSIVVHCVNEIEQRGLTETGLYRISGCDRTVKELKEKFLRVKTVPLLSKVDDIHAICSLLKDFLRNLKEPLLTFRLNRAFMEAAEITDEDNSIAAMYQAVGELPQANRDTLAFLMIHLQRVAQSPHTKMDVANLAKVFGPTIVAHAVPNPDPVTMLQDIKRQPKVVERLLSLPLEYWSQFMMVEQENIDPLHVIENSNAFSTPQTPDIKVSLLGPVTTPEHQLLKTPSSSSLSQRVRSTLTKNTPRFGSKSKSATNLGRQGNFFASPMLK

[3] = viability loss in THP-1 monocytes – THP-1 cells, cytotoxicity control for Vif-APOBEC3G degradation inhibitor project, dose response (AID 1117359); details: THP-1
[4] = viability loss in HeLa cells – cytotoxicity control for MgcRacGAP inhibitor project, dose response (AID 624300)
[5] = target: Induced myeloid leukemia cell differentiation protein Mcl-1 (Homo sapiens, UniProt Q07820)
Induced myeloid leukemia cell differentiation protein Mcl-1, sequence (Q07820 whole entry): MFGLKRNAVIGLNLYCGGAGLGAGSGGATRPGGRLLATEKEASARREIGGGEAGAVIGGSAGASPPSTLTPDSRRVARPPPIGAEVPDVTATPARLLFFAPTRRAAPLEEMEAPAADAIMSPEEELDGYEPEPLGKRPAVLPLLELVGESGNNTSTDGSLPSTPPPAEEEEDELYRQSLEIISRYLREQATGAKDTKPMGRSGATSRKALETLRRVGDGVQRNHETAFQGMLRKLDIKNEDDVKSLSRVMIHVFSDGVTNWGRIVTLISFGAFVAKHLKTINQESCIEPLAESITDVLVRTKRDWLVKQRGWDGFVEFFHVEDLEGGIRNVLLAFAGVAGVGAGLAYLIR

Beta-arrestin-1 = Beta-arrestin-1 (Homo sapiens, UniProt P49407); experiment: beta-arrestin/AP2 interaction blockers, potency – biochemical, cherry pick 1, beta2-adaptin appendage, flow cytometry, dose response (AID 588783)
Beta-arrestin-1, sequence (P49407 whole entry): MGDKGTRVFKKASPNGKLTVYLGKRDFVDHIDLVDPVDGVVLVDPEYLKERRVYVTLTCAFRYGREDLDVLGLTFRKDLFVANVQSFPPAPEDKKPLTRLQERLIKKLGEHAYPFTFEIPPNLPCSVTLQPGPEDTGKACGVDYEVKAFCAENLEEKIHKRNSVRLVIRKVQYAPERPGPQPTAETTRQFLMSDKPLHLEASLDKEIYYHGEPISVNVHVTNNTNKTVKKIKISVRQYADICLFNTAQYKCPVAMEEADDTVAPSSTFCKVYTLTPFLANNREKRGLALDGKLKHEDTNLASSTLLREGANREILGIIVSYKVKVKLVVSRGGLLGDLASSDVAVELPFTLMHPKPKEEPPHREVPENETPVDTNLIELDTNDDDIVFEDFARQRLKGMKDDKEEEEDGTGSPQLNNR

Genome polyprotein = Genome polyprotein (dengue virus type 2, UniProt P29990); experiment: flavivirus cap methylation enzyme inhibition – biochemical, confirmation dose response, primary screen (AID 588689)
Genome polyprotein, sequence (P29990 2492-3391 limits assumed): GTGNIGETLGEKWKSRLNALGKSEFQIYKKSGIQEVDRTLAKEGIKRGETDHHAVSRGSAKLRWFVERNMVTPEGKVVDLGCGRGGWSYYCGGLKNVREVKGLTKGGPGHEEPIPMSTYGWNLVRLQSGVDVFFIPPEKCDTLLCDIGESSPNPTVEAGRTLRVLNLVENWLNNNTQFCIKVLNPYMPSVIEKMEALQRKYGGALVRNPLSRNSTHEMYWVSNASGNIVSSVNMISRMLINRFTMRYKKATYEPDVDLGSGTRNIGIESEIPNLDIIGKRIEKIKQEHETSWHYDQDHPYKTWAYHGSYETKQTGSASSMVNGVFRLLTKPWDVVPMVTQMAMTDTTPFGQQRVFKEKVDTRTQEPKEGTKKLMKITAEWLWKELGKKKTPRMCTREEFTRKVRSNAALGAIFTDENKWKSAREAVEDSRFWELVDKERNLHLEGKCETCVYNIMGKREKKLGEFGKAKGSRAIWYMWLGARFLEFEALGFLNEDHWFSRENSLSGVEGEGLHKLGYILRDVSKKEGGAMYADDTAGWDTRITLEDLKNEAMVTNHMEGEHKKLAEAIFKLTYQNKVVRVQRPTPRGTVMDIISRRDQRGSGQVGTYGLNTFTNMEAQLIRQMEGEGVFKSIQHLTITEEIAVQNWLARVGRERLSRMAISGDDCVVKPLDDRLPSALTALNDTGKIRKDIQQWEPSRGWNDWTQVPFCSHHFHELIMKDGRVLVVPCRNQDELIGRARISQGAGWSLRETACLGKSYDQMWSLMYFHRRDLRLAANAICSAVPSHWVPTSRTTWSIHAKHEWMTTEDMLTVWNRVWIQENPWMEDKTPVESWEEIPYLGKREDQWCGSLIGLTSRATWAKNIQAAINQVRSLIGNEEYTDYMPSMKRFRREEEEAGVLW

Beta-galactosidase = Beta-galactosidase (Escherichia coli, UniProt Q8VNN2); experiment: detection-enzyme interference by beta-gal modulators – biochemical, E. coli enzyme, set 3, artefact control for CCR6 antagonist project, dose response (AID 504712)
Beta-galactosidase, sequence (Q8VNN2 whole entry): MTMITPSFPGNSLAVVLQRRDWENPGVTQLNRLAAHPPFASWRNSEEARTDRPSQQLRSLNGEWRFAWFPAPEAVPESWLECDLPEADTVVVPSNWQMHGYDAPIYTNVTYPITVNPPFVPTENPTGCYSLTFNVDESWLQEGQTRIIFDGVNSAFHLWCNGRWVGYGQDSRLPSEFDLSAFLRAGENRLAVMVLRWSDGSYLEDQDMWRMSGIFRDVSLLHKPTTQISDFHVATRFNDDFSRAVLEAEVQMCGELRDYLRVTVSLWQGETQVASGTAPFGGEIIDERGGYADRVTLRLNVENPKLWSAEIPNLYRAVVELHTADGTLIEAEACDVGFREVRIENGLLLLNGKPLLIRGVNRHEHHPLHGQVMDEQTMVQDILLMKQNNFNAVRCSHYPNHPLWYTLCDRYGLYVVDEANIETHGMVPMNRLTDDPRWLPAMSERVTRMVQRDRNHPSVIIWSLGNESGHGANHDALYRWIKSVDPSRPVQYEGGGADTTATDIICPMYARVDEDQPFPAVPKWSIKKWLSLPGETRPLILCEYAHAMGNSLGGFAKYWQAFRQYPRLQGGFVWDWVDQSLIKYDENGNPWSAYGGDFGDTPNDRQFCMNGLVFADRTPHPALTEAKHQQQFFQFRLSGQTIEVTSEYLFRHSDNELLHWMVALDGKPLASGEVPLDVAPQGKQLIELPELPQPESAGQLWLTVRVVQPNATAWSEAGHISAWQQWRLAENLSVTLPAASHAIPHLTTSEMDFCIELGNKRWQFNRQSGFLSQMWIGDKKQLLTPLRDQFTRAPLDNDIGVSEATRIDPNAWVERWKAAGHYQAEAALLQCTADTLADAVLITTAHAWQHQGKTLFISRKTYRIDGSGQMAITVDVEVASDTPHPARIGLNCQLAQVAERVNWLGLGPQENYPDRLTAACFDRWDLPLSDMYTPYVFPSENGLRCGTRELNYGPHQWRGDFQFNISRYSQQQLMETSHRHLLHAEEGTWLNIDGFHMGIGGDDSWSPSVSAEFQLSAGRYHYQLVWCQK

Hexokinase-1 = target: T2, Hexokinase-1 (Homo sapiens, UniProt P19367); experiment: hexokinase 1 activity inhibitors, potency – biochemical, set 2, resazurin fluorescence coupled readout, selectivity assay for HKDC1 inhibitor project, SAR follow-up (AID 588356)
T2 sequence (P19367 whole entry): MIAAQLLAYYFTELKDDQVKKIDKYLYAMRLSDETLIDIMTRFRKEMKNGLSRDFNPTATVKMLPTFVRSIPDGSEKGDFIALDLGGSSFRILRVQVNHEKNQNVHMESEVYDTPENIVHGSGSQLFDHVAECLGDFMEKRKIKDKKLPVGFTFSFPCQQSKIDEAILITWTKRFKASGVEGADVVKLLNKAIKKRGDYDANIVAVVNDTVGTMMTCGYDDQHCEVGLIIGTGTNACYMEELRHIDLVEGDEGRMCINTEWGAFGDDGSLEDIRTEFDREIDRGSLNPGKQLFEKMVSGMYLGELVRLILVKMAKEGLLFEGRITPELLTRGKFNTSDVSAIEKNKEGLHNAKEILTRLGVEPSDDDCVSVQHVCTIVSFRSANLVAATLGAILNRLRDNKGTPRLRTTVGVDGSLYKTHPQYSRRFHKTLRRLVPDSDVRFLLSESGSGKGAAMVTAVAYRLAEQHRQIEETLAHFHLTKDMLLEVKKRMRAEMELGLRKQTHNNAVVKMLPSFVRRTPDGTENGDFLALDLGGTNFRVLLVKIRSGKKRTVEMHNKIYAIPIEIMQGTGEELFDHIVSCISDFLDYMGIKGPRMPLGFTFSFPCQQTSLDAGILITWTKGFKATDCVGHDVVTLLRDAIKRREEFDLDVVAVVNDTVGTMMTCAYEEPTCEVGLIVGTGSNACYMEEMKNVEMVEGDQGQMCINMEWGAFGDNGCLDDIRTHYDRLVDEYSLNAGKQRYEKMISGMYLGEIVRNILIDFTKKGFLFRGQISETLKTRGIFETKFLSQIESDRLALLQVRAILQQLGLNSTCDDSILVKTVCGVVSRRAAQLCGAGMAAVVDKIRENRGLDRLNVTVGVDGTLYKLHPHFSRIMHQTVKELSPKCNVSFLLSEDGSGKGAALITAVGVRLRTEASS

Hexokinase HKDC1 = target: T3, Hexokinase HKDC1 (Homo sapiens, UniProt Q2TB90); experiment: analog inhibition of human HKDC1 activity – biochemical, set 2, SAR follow-up (AID 588355)
T3 sequence (Q2TB90 whole entry): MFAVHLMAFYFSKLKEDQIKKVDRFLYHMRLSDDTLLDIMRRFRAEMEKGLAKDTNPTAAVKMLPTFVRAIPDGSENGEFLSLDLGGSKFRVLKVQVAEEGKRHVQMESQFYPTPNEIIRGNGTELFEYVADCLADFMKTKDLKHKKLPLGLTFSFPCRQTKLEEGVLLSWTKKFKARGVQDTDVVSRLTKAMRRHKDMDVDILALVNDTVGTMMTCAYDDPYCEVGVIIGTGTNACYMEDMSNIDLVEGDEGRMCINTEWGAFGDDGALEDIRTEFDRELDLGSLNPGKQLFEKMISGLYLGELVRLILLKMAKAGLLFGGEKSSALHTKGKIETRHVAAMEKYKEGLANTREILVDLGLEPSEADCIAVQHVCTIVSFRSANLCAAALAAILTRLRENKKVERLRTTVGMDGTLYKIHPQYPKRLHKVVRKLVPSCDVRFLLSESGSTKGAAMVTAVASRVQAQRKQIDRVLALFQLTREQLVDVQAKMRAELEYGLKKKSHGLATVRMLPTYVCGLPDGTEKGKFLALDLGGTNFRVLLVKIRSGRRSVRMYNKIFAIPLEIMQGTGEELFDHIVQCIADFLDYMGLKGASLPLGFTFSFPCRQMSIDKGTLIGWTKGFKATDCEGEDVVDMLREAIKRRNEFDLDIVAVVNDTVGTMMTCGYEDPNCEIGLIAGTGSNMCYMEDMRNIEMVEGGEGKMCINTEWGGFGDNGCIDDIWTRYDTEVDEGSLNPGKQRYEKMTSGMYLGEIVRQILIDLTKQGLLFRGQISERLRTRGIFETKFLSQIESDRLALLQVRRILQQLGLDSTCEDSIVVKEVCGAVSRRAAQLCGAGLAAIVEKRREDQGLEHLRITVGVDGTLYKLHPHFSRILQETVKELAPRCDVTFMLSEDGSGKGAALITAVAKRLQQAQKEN

Caspase-3 = target: T4, Caspase-3 (Homo sapiens, UniProt P42574); experiment: inhibition of recombinant caspase-3 activity – biochemical, luminescence, set 2, selectivity assay for SENP protease inhibitor project, SAR follow-up (AID 588599)
T4 sequence (P42574 whole entry): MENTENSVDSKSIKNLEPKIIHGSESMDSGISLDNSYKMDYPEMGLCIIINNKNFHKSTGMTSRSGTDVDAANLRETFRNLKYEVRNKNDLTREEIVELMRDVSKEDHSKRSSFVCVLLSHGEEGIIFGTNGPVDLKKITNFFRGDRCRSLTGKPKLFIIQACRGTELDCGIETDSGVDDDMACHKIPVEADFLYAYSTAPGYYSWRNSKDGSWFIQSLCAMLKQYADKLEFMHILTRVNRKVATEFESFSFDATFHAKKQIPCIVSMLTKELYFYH

[6] = target: T5, Sentrin-specific protease 8 (Homo sapiens, UniProt Q96LD8); experiment: inhibition of sentrin protease 8 – biochemical, luminescence, set 2, SAR follow-up (AID 588601)
T5 sequence (Q96LD8 whole entry): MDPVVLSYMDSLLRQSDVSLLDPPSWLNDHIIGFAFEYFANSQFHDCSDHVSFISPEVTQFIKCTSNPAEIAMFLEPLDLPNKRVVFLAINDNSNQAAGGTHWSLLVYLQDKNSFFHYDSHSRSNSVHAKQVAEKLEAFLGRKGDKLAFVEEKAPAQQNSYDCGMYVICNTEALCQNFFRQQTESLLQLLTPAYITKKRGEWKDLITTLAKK

[7] = target: T6, Sentrin-specific protease 7 (Homo sapiens, UniProt Q9BQF6); experiment: inhibition of human SENP7 cleavage activity – biochemical, luminescence, set 2, SAR follow-up (AID 588600)
T6 sequence (Q9BQF6 whole entry): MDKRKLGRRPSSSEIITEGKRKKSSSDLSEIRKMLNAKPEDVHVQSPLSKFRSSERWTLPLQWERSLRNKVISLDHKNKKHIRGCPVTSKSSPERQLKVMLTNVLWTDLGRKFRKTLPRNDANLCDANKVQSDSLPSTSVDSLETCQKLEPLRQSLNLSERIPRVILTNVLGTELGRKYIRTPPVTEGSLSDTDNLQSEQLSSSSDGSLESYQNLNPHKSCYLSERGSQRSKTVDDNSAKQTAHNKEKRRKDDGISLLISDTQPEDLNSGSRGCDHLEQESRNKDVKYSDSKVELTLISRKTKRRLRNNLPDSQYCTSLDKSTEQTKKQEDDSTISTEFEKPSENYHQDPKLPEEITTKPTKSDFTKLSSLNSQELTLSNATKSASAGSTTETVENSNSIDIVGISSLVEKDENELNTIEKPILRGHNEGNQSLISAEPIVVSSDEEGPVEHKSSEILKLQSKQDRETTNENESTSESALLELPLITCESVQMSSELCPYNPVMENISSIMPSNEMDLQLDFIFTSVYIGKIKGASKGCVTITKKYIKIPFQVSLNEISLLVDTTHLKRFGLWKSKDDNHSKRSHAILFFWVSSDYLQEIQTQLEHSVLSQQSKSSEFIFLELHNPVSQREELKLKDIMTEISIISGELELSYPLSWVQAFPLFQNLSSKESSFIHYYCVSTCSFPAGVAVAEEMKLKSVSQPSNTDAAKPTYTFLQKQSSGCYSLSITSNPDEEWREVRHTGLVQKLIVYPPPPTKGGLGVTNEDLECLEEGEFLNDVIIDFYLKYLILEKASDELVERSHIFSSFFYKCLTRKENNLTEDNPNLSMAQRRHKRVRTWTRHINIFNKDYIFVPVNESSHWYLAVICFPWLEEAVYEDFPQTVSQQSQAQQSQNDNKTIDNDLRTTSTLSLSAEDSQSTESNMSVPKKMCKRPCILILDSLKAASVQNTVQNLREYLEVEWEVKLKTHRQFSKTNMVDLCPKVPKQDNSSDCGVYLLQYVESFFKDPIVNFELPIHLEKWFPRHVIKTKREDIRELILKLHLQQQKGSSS

[8] = target: T7, Sentrin-specific protease 6 (Homo sapiens, UniProt Q9GZR1); experiment: inhibition of human SENP6 catalytic domain – biochemical, luminescence, set 2, SAR follow-up (AID 588598)
T7 sequence (Q9GZR1 whole entry): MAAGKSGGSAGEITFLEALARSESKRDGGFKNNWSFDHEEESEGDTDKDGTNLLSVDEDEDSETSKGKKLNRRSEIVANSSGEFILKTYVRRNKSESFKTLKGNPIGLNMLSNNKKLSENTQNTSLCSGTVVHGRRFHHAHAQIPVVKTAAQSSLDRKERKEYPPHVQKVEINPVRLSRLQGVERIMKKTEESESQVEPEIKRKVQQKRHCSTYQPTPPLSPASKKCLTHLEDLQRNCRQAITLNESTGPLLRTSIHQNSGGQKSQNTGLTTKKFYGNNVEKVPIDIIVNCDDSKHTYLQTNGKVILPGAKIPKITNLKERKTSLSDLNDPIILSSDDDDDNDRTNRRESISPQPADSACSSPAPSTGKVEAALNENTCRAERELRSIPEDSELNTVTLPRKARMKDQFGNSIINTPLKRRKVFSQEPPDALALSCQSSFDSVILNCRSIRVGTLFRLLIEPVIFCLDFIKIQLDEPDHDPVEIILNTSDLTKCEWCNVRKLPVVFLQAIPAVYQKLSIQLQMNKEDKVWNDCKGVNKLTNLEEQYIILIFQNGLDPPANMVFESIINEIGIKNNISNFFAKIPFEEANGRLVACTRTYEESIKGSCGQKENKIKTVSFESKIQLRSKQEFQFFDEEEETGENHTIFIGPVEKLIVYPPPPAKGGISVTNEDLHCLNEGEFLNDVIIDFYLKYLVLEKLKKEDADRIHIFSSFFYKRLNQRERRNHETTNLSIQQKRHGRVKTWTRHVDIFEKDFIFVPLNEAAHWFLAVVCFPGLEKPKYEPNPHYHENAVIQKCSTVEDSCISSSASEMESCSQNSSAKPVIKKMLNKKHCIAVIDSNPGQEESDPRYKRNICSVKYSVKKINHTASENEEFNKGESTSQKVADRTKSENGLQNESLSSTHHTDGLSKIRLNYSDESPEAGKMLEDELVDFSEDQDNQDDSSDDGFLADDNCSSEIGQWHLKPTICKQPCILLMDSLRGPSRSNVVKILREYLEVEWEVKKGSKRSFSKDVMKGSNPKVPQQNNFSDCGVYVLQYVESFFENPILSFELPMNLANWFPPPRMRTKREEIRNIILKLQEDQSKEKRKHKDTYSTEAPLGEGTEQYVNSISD

CCC(=O)NC1=C(Cl)C(=O)C(NC(=O)CC)=C(Cl)C1=O
inactive: IC50 (Beta-galactosidase) > 66.6 µM
active: CC50 (Vero) 24 µM | IC50 [1] 2.67 µM | IC50 [2] 23.3 µM | CC50 [3] 33.9 µM | CC50 [4] 48 µM | IC50 [5] 4.29 µM | IC50 (Beta-arrestin-1) 2.79 µM | IC50 (Genome polyprotein) 5.19 µM

CCCCN1C(=O)C(NC(C)=O)c2cc(Cl)ccc21 (stereo not given)
inactive: IC50 (Hexokinase-1) > 80 µM | IC50 (Hexokinase HKDC1) > 80 µM

CCCS(=O)(=O)c1c(S(=O)(=O)CCC)c2c(C)cccn2c1C(=O)N/N=C\c1c[nH]c2ccccc12
inactive: IC50 (Caspase-3) > 99 µM | IC50 [6] > 99 µM | IC50 [7] > 99 µM | IC50 [8] > 99 µM
